Experimental data reported in patent publication US12226410B2, “Methods for enhancing cellular clearance of pathological molecules via activation of the cellular protein ykt6” (NORTHWESTERN UNIVERSITY, priority 2019, dated 2025).

How the values were obtained:
A53T iPSn = test: Measurement of neuron viability (neurofilament); format: cell-based, human; conditions: A53T iPSn analyzed at day 100; 5 nM, 14d
Description: FIGS. 6A, 6B, 6C, 6D, 6E, 6F, and 6G. FTIs enhance lysosomal GCase activity and reduce pathological a-syn by blocking ykt6 farnesylation. 6A) GCase activity in FTI-treated A53T iPSn at d80 (LNK-754 5 nM, 5d). 6B) GCase activity in FTI-treated A53T iPSn expressing empty vector (vect) or ykt6-CS (n=4). 6C) Lysosomal GCase activity was assessed in FTI-treated SHSY5Y cells transfected with scrambled or ykt6 shRNA (KD) (n=3). 6D) Quantification of Triton X-100 soluble (T-sol) a-syn by western blot from FTI-treated A53T iPSn (5 nM, 7d). *, non-specific band. (n=3). 6E) Quantification of insoluble a-syn from A53T iPSn as in D (n=3). 6F) Insoluble a-syn in FTI-treated H4 cells (5 nM, 5 days) transfected with either scrambled or ykt6 shRNA (n=6). 6G) Neuron viability was assessed in FTI-treated A53T iPSn (5 nM, 14d from d86-d100) by quantification of neurofilament protein. […]
Measurement of neuron viability. iPSC-neurons were seeded on a PDL/laminin coated 96 well plate and analyzed and treated with either lentivirus expressing ykt6 CS vs empty vector, or DMSO vs 5 nM FTI (LNK-754) for 14 days. […] Neurofilament intensity was determined using Image Studio software (version 2.1 Li-cor) and normalized to cell volume. Replicates represent values from four individual culture wells and were analyzed by Student's T-test using GraphPad Prism software V 6.0. […]

human A53T a-syn = test: FTI treatment of DASYN53 mice: soluble and insoluble a-syn in midbrain; format: in vivo; conditions: i.p. 0.9 mg/kg, 26d
Text: (§1) FIGS. 8A, 8B, 8C, 8D, 8E, and 8F. FTI treatment enhances GCase activity and reduces pathological a-syn in transgenic mice. 8A) GCase activity in the midbrain of FTI (LNK-754)-treated DASYN53 mice (treated as in FIG. 7) (n=4, veh; n=5, FTI). 8B & 8C) Quantification of soluble and insoluble a-syn from midbrains of FTI-treated DASYN53 mice normalized to total protein (CBB). Syn211 is selective for human (hu) a-syn; C20 and syn303 detect mouse (ms) and hu a-syn, (n=3, nTg+Veh; n=4, DASYN53+veh; n=5 DASYN53+FTI). 8D) Midbrain TH levels were quantified by western blot of FTI-treated DASYN53 mice (n=3). 8E) Body weight of FTI-treated DASYN53 mice (n=9, nTg+Veh; n=7, DASYN53+veh; n=7 DASYN53+FTI). 8F) Rotarod test of FTI-treated DASYN53 mice (n=12, nTg+Veh; n=7, DASYN53+veh; n=7 DASYN53+FTI). Values are the mean+/−SEM. *p<0.05, **p<0.01, and *** p<0.001. Student's t-test, panel A; ANOVA with Tukey's posthoc test, panels B-F.
Sequential biochemical extraction for the analysis of pathological a-synuclein. Cells were harvested in phosphate buffered saline (PBS), pH 7.4, and pelleted by centrifugation at 400×g for 5 minutes. […] Protein concentration was measured by BCA assay (Pierce). […]

DASYN53 mice = test: Behavioral analysis of DASYN53 mice (body weight, Rotarod); format: in vivo; conditions: i.p. 0.9 mg/kg
Text: as §1
Behavioral analysis of DASYN53 mice. These assays were done as previously described (Tsika et al., 2010). […] Balance and motor behavior testing was done at the end of the injection protocol (between days 24-26) and determined using a Rotarod apparatus (Ugo Basile) with acceleration from 4-40 rpm over a 300 second period. Latency to fall was recorded over 4 trials per mouse, and the data were presented as the average of 3 trials (excluding the first trial as a training session). […]

C#Cc1cccc(-c2cc(=O)n(C)c3ccc([C@](O)(c4ccc(Cl)cc4)c4cncn4C)cc23)c1 [LNK-754]
neuron viability (A53T iPSn): improved neuron viability
soluble and insoluble A53T a-syn in midbrain extracts (human A53T a-syn): reduce soluble and insoluble A53T a-syn
reduction in body weight of DASYN53 mice (DASYN53 mice; day 23-24): rescued
reduction in motor performance (Rotarod) of DASYN53 mice (DASYN53 mice; days 24-26): rescued
